Data reported in US20230204587A1, “NOVEL DIAGNOSTIC MARKER FOR PROSTATE CANCER” (URTESTE S.A., priority 2020, published 2023).
Starred links: 1 amine or outer side, 2 acyl side, 3 side chain; linkers in the order of their positions; H or OH if unused. Non-standard residues stand in square brackets, D forms with d. No end group written: not given here. *: point of attachment. Benzoyl(5-NH,2-NO2) = O=C(c1cc(N[*:1])ccc1[N+](=O)[O-])[*:2]; pNA = O=[N+]([O-])c1ccc(N*)cc1; 2Abz = Nc1ccccc1C(=O)O

Key:
[1] = system: proteolytic enzymes in urine; assay: RP HPLC analysis of substrate hydrolysis in urine from a person diagnosed with prostate cancer; format: biochemical, human; conditions: randomly selected urine from a person diagnosed with prostate cancer
Description: A: ABZ-Trp-Glu-Gly-Asn-ANB-NH2 substrate in 200 mM Tris-HCl buffer, pH 8.0. B: Hydrolysis of ABZ-Trp-Glu-Gly-Asn-pNA substrate in urine of patients diagnosed with prostate cancer.

[2] = system: proteolytic enzymes in urine; assay: Chromogenic substrate hydrolysis in urine samples (absorbance at 405 nm, 96-well plate); format: biochemical, human; conditions: for rate of hydrolysis of substrate (increase in absorbance over time): 200 mM Tris-HCl pH 8.0, 37° C., 60 minutes, 405 nm
Description: The study on the application of new compounds was performed on a group of 25 patients diagnosed with prostate cancer. For this purpose, the compound with formula: ABZ-Trp-Glu-Gly-Asn-ANB-NH2 or ABZ-Trp-Glu-Gly-Asn-pNA was dissolved in dimethyl sulfoxide (at a concentration of 0.5 mg/mL); 50 μL of this solution was mixed with 120 μl buffer (200 mM Tris-HCl, pH 8.0) and 80 μL of urine of a person with prostate cancer. The measurement was made in a 96-well plate designed for measuring absorbance, and each sample was analysed in triplicate at 37° C. The duration of the measurement was 60 minutes. During the measurement, the wavelength characteristic of the released chromophore (ANB-NH2 or pNA) was monitored at 405 nm (range 380-430 nm).

Row | Substance | hydrolysis products by RP HPLC [1] | rate of hydrolysis of substrate (increase in absorbance over time) ([2]; urine from healthy individuals) | absorbance increase on incubation with urine from various kinds of malignancies ([2]; urine from pancreas, liver, bowel, lung, bile duct, stomach and prostate cancer patients) | rate of hydrolysis of substrate (increase in absorbance over time) ([2]; urine of patients diagnosed with prostate cancer (samples 1-25))
1 | ABZ-Trp-Glu-Gly-Asn-pNA ([2Abz]WEGN-pNA) [Compound 2, chromogenic peptide; ABZ is 2-aminobenzoic acid, pNA is para-nitroaniline] | break down into the ABZ-Trp-Glu-Gly-Asn-OH peptide fragment and chromophore |  |  | 
2 | ABZ-Trp-Glu-Gly-Asn-ANB-NH2 ([2Abz]WEGN-{Benzoyl(5-NH,2-NO2)-NH2}) [Compound 1, chromogenic peptide; ABZ is 2-aminobenzoic acid, ANB-NH2 is amide of 5-amino-2-nitrobenzoic acid] | break down into the ABZ-Trp-Glu-Gly-Asn-OH peptide fragment and chromophore | does not lead to an increase in absorbance | absorbance increase is observed only for urine of patient diagnosed with prostate cancer | all samples 1-25 disintegrated
